Laboratory results from article PMC12067741, “Inhibition of SOD1 trimerization is a novel drug target for ALS disease” (Translational Neurodegeneration, 2025).
Like-named read-outs stand apart in the source and are kept apart here.

Columns and labels:
[1] = tested on: SOD1^G93A−Tg mice; experiment: Efficacy of feeding combined with i.p. injection in SOD1G93A-Tg ALS mice; format: in vivo, mouse; details: daily feeding from 7 weeks plus i.p. twice weekly from 11 weeks; vehicle about 80%
Description: Age-matched WT mice were tested as positive control. […] Mouse movement was recorded.
Meier survival curve of SOD1G93A-Tg ALS mouse model.
Lifespan of PRG-A-01 data was collected from
SOD1G93A-Tg ALS mouse model.

[2] = mouse, in vivo, po, 20 mg/kg
Text: Next, we checked the basic in vitro ADME test including pharmacokinetics, plasma protein binding, CYP (Cytochrome P450) inhibition, metabolic stability and blood–brain barrier (BBB) permeability. […] We also plan to test safety panel assay in the future to obtain safety data for the drug.
Fig. S8. Preclinical data of PRG-A-04 a Plasma protein binding b CYP inhibition(direct) […]
d Mouse Brain Tissue penetration
For the convenience of calculation, […]

[3] = mouse, in vivo, iv, 1 mg/kg
[4] = tested on: MT-SOD1 recombinant protein; experiment: In vitro oligomerization of recombinant GST-SOD1 (non-denaturing); format: biochemical; details: GST-SOD1 4 μg/mL, PRG-A-04 10 μmol/L, 30 min, room temperature
Description: For detecting the oligomerization assay promoted by mutant-type (MT)-SOD1 recombinant proteins in vitro, GST-SOD1 recombinant protein (4 μg/mL) was incubated with PRG-A-04 (10 μmol/L) for 30 min at room temperature in PBS and the samples were mixed with non-denaturing sample buffer. Those were separated in SDS-PAGE gel without boiling.

[5] = target: T1, GST-SOD1-G93A recombinant protein (MT-SOD1) (Homo sapiens, UniProt P00441, G94A); experiment: GST pull-down with LC-MS/MS of protein-bound compound; format: binding; details: GST pull-down and LC-MS/MS
T1 construct: made in house; host or cells: Escherichia coli BL21 (DE3), pCold GST vector
Description: To prepare a calibration curve within the PRG-A-04 concentration range of 1–50 ppb, standard solutions (1, 5, 10, 25, 50 ppb) were prepared by dilution with 90% methanol. GST, GST-SOD1 WT, and GST–SOD1-G93A recombinant proteins bound to GST agarose were incubated overnight with PRG-A-04 (20 μmol/L) in cold chamber (4 °C). The samples were washed three times to remove unbound PRG-A-04 from the proteins. The washed sample pellets were incubated with 90% methanol to elute the protein-bound PRG-A-04. The elutes from each sample were analyzed by LC/MS as follows. Both standard samples and control samples underwent the same sample processing procedures as the test samples. The LC–MS/MS analysis was performed on a Waters UPLC Acquity I-class plus system coupled to a Qtrap 6500 plus system (Sciex, Framingham, MA). An Aeris 3.6 μm 100 × 2.1 mm column (Phenomenex, Torrance, CA) was used for separation. The mobile phase consisted of solvent A (water containing 0.1% formic acid) and solvent B (acetonitrile containing 0.1% formic acid). Gradient elution was achieved as follows: […], 90% A, 10% B; 0.37–6.0 min, 55% A, 45% B; 6.0–7.0 min, 5% A, 95% B; 7.0–10.0 min, 90% A, 10% B. The flow rate was 0.4 mL/min. The column temperature was 40 °C, and the sample injection volume was 10 µL. After each injection, the autosampler syringe was washed with methanol. […]

T1 sequence (P00441 whole entry G94A): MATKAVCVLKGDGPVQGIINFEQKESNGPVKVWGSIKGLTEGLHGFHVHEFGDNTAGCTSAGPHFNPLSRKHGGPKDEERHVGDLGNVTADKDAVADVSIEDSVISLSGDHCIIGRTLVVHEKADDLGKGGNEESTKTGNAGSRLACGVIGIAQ

In the case of `COc1cc(C=CCOC2Cc3cc4ccc(=O)oc4cc3OC2(C)C)ccc1[N+](=O)[O-]` (stereo not drawn) [PRG-A-04], the “reduction of motility (rotarod latency) at 18 weeks” value [1] is reported as 50%, the “Brain/Plasma Ratio, M01+3n” value ([2]; 0.5 h) is reported as 2.18 and the “Brain/Plasma Ratio, M02+3n” value ([2]; 0.5 h) is reported as 1.54. For the same compound, the “Brain/Plasma Ratio, M03+3n” value ([2]; 0.5 h) was 1.90, the “Brain/Plasma Ratio, Mean” value ([2]; 0.5 h) was 1.87 and the “Brain/Plasma Ratio, M01+3n” value ([2]; 1 h) was 2.29. For the same compound, the “Brain/Plasma Ratio, M02+3n” value ([2]; 1 h) was 2.02, the “Brain/Plasma Ratio, M03+3n” value ([2]; 1 h) was 2.02 and the “Brain/Plasma Ratio, M01+3n” value ([2]; 12 h) was 1.92. For the same compound, the “Brain/Plasma Ratio, M02+3n” value ([2]; 12 h) was 1.87, the “Brain/Plasma Ratio, M03+3n” value ([2]; 12 h) was 1.71 and the “Brain/Plasma Ratio, Mean” value ([2]; 12 h) was 1.84. For the same compound, the AUC0-inf [3] was 1857.00 ng·h/mL, the AUC0-last [3] was 1826.50 ng·h/mL and the “C0 (or) Cmax” value [3] was 1272.33 ng/mL. The T1/2 [3] was 4.12 h, the “effect on oligomerization of recombinant MT-SOD1 in vitro” value [4] was “inhibited the oligomerizing or aggregation property of MT-SOD1” and the “binding affinity to MT-SOD1 versus WT-SOD1” value [5] was “stronger binding affinity to MT-SOD1 than to WT-SOD1 protein”.
